This note sets out measurements from US20260297081A1, “COMPOUNDS AND METHODS OF TREATING CANCERS” (Cullgen Inc., priority 2023, published 2026).

Assay type in all cases: cell-based
Test [1] has as its target T1, CDK4 (Homo sapiens, UniProt P11802+Q16531). The test is described as follows: HiBiT detection of HiBiT-tagged CDK4 protein level in MCF7 cells, 16 hours (Table 8). The arrangement: expressed in transfected cells; host or cells: MCF7. To be noted: MCF7 cells stably expressing HiBiT tagged target proteins; for activity at 0.01 µM: 10 nM, read-out: % CDK4 Relative Level (10 nM); for activity at 0.1 µM: 100 nM, read-out: % CDK4 Relative Level (100 nM). The protocol: HiBiT detection system quantitatively measures total amounts of HiBiT-tagged proteins using a luminescent based method. MCF7 cells stably expressing HiBiT tagged target proteins were treated with heterobifunctional compounds at indicated concentrations for 16 hours, then lysed with Nano-Glo HiBiT Lytic detection reagents.
Target sequence in this assay (P11802 whole entry): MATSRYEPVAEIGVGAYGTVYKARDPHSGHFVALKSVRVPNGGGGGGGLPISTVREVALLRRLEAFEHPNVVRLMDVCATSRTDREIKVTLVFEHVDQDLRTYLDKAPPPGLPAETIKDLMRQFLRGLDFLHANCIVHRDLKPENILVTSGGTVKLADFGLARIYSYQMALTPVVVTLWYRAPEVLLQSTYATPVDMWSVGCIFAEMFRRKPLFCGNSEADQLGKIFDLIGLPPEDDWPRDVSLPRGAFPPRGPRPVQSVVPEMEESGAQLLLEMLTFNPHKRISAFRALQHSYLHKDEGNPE
Target sequence in this assay (P24385 whole entry partner): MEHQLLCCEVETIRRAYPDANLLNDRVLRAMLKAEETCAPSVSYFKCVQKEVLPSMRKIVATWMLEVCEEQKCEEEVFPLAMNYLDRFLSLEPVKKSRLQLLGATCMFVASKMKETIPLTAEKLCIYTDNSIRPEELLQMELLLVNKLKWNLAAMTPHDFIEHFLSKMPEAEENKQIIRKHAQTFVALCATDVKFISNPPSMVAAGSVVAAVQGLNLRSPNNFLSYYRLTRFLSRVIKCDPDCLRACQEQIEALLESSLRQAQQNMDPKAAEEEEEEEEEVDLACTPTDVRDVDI
Target sequence in this assay (Q16531 2-1140 limits assumed): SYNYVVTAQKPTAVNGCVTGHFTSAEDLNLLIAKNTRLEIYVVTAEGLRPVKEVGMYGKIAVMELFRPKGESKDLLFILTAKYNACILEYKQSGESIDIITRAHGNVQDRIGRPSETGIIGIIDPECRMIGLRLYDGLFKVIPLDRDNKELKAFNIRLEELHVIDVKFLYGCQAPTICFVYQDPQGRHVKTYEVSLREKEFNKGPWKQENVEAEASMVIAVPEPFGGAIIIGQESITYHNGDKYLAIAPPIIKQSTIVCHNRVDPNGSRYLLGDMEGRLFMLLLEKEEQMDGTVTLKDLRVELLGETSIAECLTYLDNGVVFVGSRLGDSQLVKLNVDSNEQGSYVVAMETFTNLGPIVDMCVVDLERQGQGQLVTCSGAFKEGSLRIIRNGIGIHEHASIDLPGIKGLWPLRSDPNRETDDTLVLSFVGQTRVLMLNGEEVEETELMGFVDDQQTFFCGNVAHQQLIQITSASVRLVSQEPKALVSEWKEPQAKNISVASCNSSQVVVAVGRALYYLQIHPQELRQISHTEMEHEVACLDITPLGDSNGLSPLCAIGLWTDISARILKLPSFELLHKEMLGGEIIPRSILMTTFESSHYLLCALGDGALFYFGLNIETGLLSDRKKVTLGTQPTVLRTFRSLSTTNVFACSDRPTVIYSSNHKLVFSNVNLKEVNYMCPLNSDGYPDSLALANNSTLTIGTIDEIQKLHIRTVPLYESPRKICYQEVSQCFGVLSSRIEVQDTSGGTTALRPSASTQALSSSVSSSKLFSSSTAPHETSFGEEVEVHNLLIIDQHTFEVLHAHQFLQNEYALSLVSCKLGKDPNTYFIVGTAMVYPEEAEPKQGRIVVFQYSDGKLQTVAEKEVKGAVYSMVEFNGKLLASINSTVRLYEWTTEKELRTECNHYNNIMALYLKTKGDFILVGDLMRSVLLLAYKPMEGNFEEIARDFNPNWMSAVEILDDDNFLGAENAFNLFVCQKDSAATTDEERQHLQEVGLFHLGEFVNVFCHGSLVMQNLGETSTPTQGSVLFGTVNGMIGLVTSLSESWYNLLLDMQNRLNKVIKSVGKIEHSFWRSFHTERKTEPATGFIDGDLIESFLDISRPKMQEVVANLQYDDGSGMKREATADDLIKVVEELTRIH
For orientation: The HiBiT peptide binds its large partner to form an active luciferase.

Test [2] concerns the target T1, CDK4. As to the kind of experiment: CDK4 percentage degradation in Calu-1 cells (Table 6). On the set-up: Cells that express cyclin D1-3 and CDK4/6 proteins were treated with heterobifunctional compounds; endogenous in cells; host or cells: Calu-1. The conditions noted are these: 16 hours; for inhibition at 0.04 µM: 40 nM; for inhibition at 0.2 µM: 200 nM. In outline:
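Percentage degradation of Cyclin D1 and CDK4 derived from densitometry of ECL Western blots on lysates of Calu-1 cells. Treatment was 16 h with compound at either 40 nM or 200 nM.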
Target sequence in this assay (P11802 2-303 limits assumed): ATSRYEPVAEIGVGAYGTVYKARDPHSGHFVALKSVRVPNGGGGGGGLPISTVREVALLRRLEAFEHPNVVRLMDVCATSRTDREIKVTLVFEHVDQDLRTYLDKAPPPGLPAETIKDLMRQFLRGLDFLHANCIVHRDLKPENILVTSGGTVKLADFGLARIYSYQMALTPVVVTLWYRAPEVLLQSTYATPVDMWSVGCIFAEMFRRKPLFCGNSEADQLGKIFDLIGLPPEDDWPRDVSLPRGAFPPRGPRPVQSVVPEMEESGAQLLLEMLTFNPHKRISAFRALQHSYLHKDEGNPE
Target sequence in this assay (P24385 whole entry partner): as the sequence (P24385 whole entry partner) above
Target sequence in this assay (Q16531 2-1140 limits assumed): as the sequence (Q16531 2-1140 limits assumed) above

In a further test the test system is MCF7 cells. As to the kind of experiment: Anti-proliferation (viability) of MCF7 cells (Table 7, FIG. 2B). The conditions noted are these: Homo sapiens, MCF7, MCF7 cells, 3-6 days, 10-point serial dilution; read-out: GI IC50 in MCF-7.

What is called inhibition is the relative decrease from the control value, in per cent. As usually defined, the IC50 is the midpoint of a concentration-inhibition curve.

For `CC(=O)c1c(C)c2cnc(Nc3ccc(N4CCN(CCC(=O)N5CC6(CC(Nc7nc(NC(C)C)ccc7C(=O)Nc7cc(C)n(C)n7)C6)C5)CC4)cn3)nc2n(C2CCCC2)c1=O` [CPD-302, 2-((2-(3-(4-(6-((6-acetyl-8-cyclopentyl-5-methyl-7-oxo-7,8-dihydropyrido[2,3-d]pyrimidin-2-yl)amino)pyridin-3-yl)piperazin-1-yl)propanoyl)-2-azaspiro[3.3]heptan-6-yl)amino)-N-(1,5-dimethyl-1H-pyrazol-3-yl)-6-(isopropylamino)nicotinamide], at CDK4 [1], the activity at 0.01 µM fell in the range of 55 to 85% and the activity at 0.1 µM lay within 55 to 85%. In addition, on CDK4 [2], the inhibition at 0.04 µM is < 30% and the inhibition at 0.2 µM is < 30%. Moreover, the IC50 with MCF7 cells is < 50 nM.
As for `[2H]C([2H])([2H])Nc1ccc(C(=O)Nc2ccc(N(C)C)nn2)c(NC2CC3(C2)CN(C(=O)CN2CCC4(CCN(c5ccc(Nc6ncc7c(C)c(C(C)=O)c(=O)n(C8CCCC8)c7n6)nc5)C4)C2)C3)n1` (centres unmarked) [CPD-384, 2-((2-(2-(7-(6-((6-acetyl-8-cyclopentyl-5-methyl-7-oxo-7,8-dihydropyrido[2,3-d]pyrimidin-2-yl)amino)pyridin-3-yl)-2,7-diazaspiro[4.4]nonan-2-yl)acetyl)-2-azaspiro[3.3]heptan-6-yl)amino)-N-(6-(dimethylamino)pyridazin-3-yl)-6-((methyl-d3)amino)nicotinamide], at CDK4 [1], the activity at 0.01 µM lay in the range of 55 to 85% and the activity at 0.1 µM lay in the range of 55 to 85%. Besides, at CDK4 [2], the inhibition at 0.04 µM was < 30% and the inhibition at 0.2 µM is < 30%. The half-maximal inhibitory concentration (IC50) in the test on MCF7 cells was < 50 nM.
In the case of `CC(=O)c1c(C)c2cnc(Nc3ccc(N4CCC(N(C)CC(=O)N5CCC(Nc6nc(NC(C)C)ccc6C(=O)Nc6ccc(N(C)C)nn6)CC5)CC4)cn3)nc2n(C2CCCC2)c1=O` [CPD-360, 2-((1-(N-(1-(6-((6-acetyl-8-cyclopentyl-5-methyl-7-oxo-7,8-dihydropyrido[2,3-d]pyrimidin-2-yl)amino)pyridin-3-yl)piperidin-4-yl)-N-methylglycyl)piperidin-4-yl)amino)-N-(6-(dimethylamino)pyridazin-3-yl)-6-(isopropylamino)nicotinamide], on CDK4 [1], the activity at 0.01 µM is 55 to 85% and the activity at 0.1 µM fell in the range of 55 to 85%. Further, on CDK4 [2], the inhibition at 0.04 µM was < 30% and the inhibition at 0.2 µM was < 30%. Further, the half-inhibitory concentration (IC50) in the test on MCF7 cells was < 50 nM.
Consider `CC(=O)c1c(C)c2cnc(Nc3ccc(N4CCN(CCC(=O)N5CCC(Nc6nc(NC(C)C)ccc6C(=O)Nc6ccc(N(C)C)nn6)CC5)CC4)cn3)nc2n(C2CCCC2)c1=O` [CPD-301, 2-((1-(3-(4-(6-((6-acetyl-8-cyclopentyl-5-methyl-7-oxo-7,8-dihydropyrido[2,3-d]pyrimidin-2-yl)amino)pyridin-3-yl)piperazin-1-yl)propanoyl)piperidin-4-yl)amino)-N-(6-(dimethylamino)pyridazin-3-yl)-6-(isopropylamino)nicotinamide], for which, on CDK4 [1], the activity at 0.01 µM fell in the range of 55 to 85% and the activity at 0.1 µM lay within 55 to 85%. Also, at CDK4 [2], the inhibition at 0.04 µM was < 30% and the inhibition at 0.2 µM was < 30%. Besides, the IC50 in the test with MCF7 cells was < 50 nM.
In the case of `CC(=O)c1c(C)c2cnc(Nc3ccc(CN4CCC(CC(=O)NC5CC6(C5)CC(Nc5nc(NC(C)C)ccc5C(=O)Nc5ccc(N(C)C)nn5)C6)C4)cn3)nc2n(C2CCCC2)c1=O` (centres unmarked) [CPD-596, 2-((6-(2-(1-((6-((6-acetyl-8-cyclopentyl-5-methyl-7-oxo-7,8-dihydropyrido[2,3-d]pyrimidin-2-yl)amino)pyridin-3-yl)methyl)pyrrolidin-3-yl)acetamido)spiro[3.3]heptan-2-yl)amino)-N-(6-(dimethylamino)pyridazin-3-yl)-6-(isopropylamino)nicotinamide], on CDK4 [1], the activity at 0.01 µM lay in the range of 55 to 85% and the activity at 0.1 µM is > 85%. Besides, the IC50 in the test with MCF7 cells was > 100 nM.
The corresponding values for `[2H]C([2H])([2H])Nc1ccc(C(=O)Nc2cc(C)n(C)n2)c(NC2CC3(C2)CN(C(=O)CN2CCC4(CCN(c5ccc(Nc6ncc7c(C)c(C(C)=O)c(=O)n(C8CCCC8)c7n6)nc5)C4)C2)C3)n1` (centres unmarked) [CPD-447, 2-((2-(2-(7-(6-((6-acetyl-8-cyclopentyl-5-methyl-7-oxo-7,8-dihydropyrido[2,3-d]pyrimidin-2-yl)amino)pyridin-3-yl)-2,7-diazaspiro[4.4]nonan-2-yl)acetyl)-2-azaspiro[3.3]heptan-6-yl)amino)-N-(1,5-dimethyl-1H-pyrazol-3-yl)-6-((methyl-d3)amino)nicotinamide] are 55 to 85%, 55 to 85% and < 50 nM.
The corresponding values for `CNc1ccc(C(=O)Nc2ccc(N(C)C)nn2)c(NCCCCC(=O)N2CCN(c3ccc(Nc4ncc5cc(C(=O)N(C)C)n(C6CCCC6)c5n4)nc3)CC2)n1` [CPD-618, 7-cyclopentyl-2-((5-(4-(5-((3-((6-(dimethylamino)pyridazin-3-yl)carbamoyl)-6-(methylamino)pyridin-2-yl)amino)pentanoyl)piperazin-1-yl)pyridin-2-yl)amino)-N,N-dimethyl-7H-pyrrolo[2,3-d]pyrimidine-6-carboxamide] are > 85%, 55 to 85% and > 100 nM.
The corresponding values for `CNc1ccc(C(=O)Nc2ccc(N(C)C)nn2)c(NCCCCCCCCNC(=O)CN2CCN(c3ccc(Nc4ncc5cc(C(=O)N(C)C)n(C6CCCC6)c5n4)nc3)CC2)n1` [CPD-630, 7-cyclopentyl-2-((5-(4-(2-((8-((3-((6-(dimethylamino)pyridazin-3-yl)carbamoyl)-6-(methylamino)pyridin-2-yl)amino)octyl)amino)-2-oxoethyl)piperazin-1-yl)pyridin-2-yl)amino)-N,N-dimethyl-7H-pyrrolo[2,3-d]pyrimidine-6-carboxamide] are 55 to 85%, 55 to 85% and > 100 nM.
`CC(=O)c1c(C)c2cnc(Nc3ccc(CN4CCN(CC(=O)NC5CC6(C5)CC(Nc5nc(C(C)C)ccc5C(=O)Nc5ccc(N(C)C)nn5)C6)CC4)cn3)nc2n(C2CCCC2)c1=O` (centres unmarked) [CPD-579, 2-((6-(2-(4-((6-((6-acetyl-8-cyclopentyl-5-methyl-7-oxo-7,8-dihydropyrido[2,3-d]pyrimidin-2-yl)amino)pyridin-3-yl)methyl)piperazin-1-yl)acetamido)spiro[3.3]heptan-2-yl)amino)-N-(6-(dimethylamino)pyridazin-3-yl)-6-isopropylnicotinamide]: on CDK4 [1], the activity at 0.01 µM is 55 to 85% and the activity at 0.1 µM was in the range of 55 to 85%. The IC50 with MCF7 cells was < 50 nM.
On to `CC(=O)c1c(C)c2cnc(Nc3ccc(N4CCN(C5CCN(C(=O)[C@H]6CC[C@H](Nc7nc(C8CC8)ccc7C(=O)Nc7ccc(N(C)C)nn7)CC6)C5)CC4)cn3)nc2n(C2CCCC2)c1=O` (stereo partly drawn) [CPD-573, 2-((trans-4-(3-(4-(6-((6-acetyl-8-cyclopentyl-5-methyl-7-oxo-7,8-dihydropyrido[2,3-d]pyrimidin-2-yl)amino)pyridin-3-yl)piperazin-1-yl)pyrrolidine-1-carbonyl)cyclohexyl)amino)-6-cyclopropyl-N-(6-(dimethylamino)pyridazin-3-yl)nicotinamide], for which, on CDK4 [1], the activity at 0.01 µM lay within 55 to 85% and the activity at 0.1 µM fell in the range of 55 to 85%. Besides, the half-inhibitory concentration (IC50) in the test on MCF7 cells is < 50 nM.
Regarding `CNc1ccc(C(=O)Nc2ccc(N(C)C)nn2)c(NCCCCCCCC(=O)N2CCN(c3ccc(Nc4ncc5cc(C(=O)N(C)C)n(C6CCCC6)c5n4)nc3)CC2)n1` [CPD-621, 7-cyclopentyl-2-((5-(4-(8-((3-((6-(dimethylamino)pyridazin-3-yl)carbamoyl)-6-(methylamino)pyridin-2-yl)amino)octanoyl)piperazin-1-yl)pyridin-2-yl)amino)-N,N-dimethyl-7H-pyrrolo[2,3-d]pyrimidine-6-carboxamide], at CDK4 [1], the activity at 0.01 µM was 55 to 85% and the activity at 0.1 µM fell in the range of 55 to 85%. The IC50 in the test on MCF7 cells was > 100 nM.
For `CNc1ccc(C(=O)Nc2ccc(N(C)C)nn2)c(NCCC(=O)N2CCN(Cc3ccc(Nc4ncc(F)c(-c5cc(F)c6nc(C)n(C(C)C)c6c5)n4)nc3)CC2)n1` [CPD-600, N-(6-(dimethylamino)pyridazin-3-yl)-2-((3-(4-((6-((5-fluoro-4-(4-fluoro-1-isopropyl-2-methyl-1H-benzo[d]imidazol-6-yl)pyrimidin-2-yl)amino)pyridin-3-yl)methyl)piperazin-1-yl)-3-oxopropyl)amino)-6-(methylamino)nicotinamide], at CDK4 [1], the activity at 0.01 µM is 55 to 85% and the activity at 0.1 µM is 55 to 85%. In addition, the 50% inhibitory concentration (IC50) in the test with MCF7 cells was > 100 nM.
For the compound `CC(=O)c1c(C)c2cnc(Nc3ccc(N4CCN(C5CCN(C(=O)[C@H]6CC[C@H](Nc7nc(C)ccc7C(=O)Nc7ccc(N(C)C)nn7)CC6)C5)CC4)cn3)nc2n(C2CCCC2)c1=O` (stereo partly drawn) [CPD-576, 2-((trans-4-(3-(4-(6-((6-acetyl-8-cyclopentyl-5-methyl-7-oxo-7,8-dihydropyrido[2,3-d]pyrimidin-2-yl)amino)pyridin-3-yl)piperazin-1-yl)pyrrolidine-1-carbonyl)cyclohexyl)amino)-N-(6-(dimethylamino)pyridazin-3-yl)-6-methylnicotinamide], on CDK4 [1], the activity at 0.01 µM was 55 to 85% and the activity at 0.1 µM lay in the range of 55 to 85%. Also, in the test with MCF7 cells, the IC50 is > 100 nM.
